Results reported in US12459918B2, “Isoquinolinone derivatives serving as rock protein kinase inhibitors and use thereof” (GUANGZHOU OCUSUN OPHTHALMIC BIOTECHNOLOGY CO., LTD., priority 2019, dated 2025).

Columns and labels:
[1] = system: New Zealand rabbits with acute ocular hypertension; experiment: Intraocular pressure reduction experiment in New Zealand rabbits with acute ocular hypertension, experiment operation 1; assay type: in vivo; conditions: for Intraocular pressure in the left eye: left eye (not modeled); for Intraocular pressure in the right eye: right eye (induced ocular hypertension)
Excerpt: Experimental Example 3. Intraocular Pressure Reduction Experiment in New Zealand Rabbits with Acute Ocular Hypertension
Acute ocular hypertension of rabbits were induced by anterior chamber injection of a viscoelastic agent and the intraocular pressure reduction action of compound 60 and compound 63 at different concentrations were explored by eye-drop administration.
Male New Zealand rabbits, aged 97-127 days, weighted 2.5-3.4 kg, purchased from PizhouDongfang Breeding Co. Ltd.
Male New Zealand rabbits were randomly divided into 8 rabbits/per group according to body weight using a computer-generated randomization method. The animals in each group were injected with medical sodium hyaluronate gel in the anterior chamber of right eye in a single dose, 100 μL/eye, to induce ocular hypertension. In 5-15 minutes, 3 hours and 6 hours after right eye modeling, both eyes were dropped with a solvent, K-115 or test samples (compound 60 at different concentrations) at a volume of 50 μL/eye and intraocular pressure of the animals was measured before administration and in 1, 2, 4, 6, 8 and 10 hours after administration, respectively.

[2] = Toxicokinetics experiment: active compounds in plasma after 14 days of continuous administration; assay type: in vivo, New Zealand rabbits; conditions: for Concentration of active compounds in plasma, Group 1 / Concentration of active compounds in plasma, Group 2: 8.0 mg/mL eye-drop, after 14 days of continuous administration
Protocol: Experimental Example 5. Toxicokinetics Experiment
The production rate of active drug ingredients and the exposure amount of active drug ingredients of the compound in plasma were detected after 14 days of continuous administration.
Male New Zealand rabbits, aged 3-6 months, weighted 2.0-5.0 kg, purchased from PizhouDongfang Breeding Co. Ltd.
After 14 days of continuous administration, blood samples from the group administrated with compound 63 (8.0 mg/mL) were collected at 0 hour (before administration) and in 0.5, 1, 2, 4, 8, and 24 hours after administration on Days 14-15. About 0.8 mL of whole blood was collected from the auricular artery or the saphenous vein of the hind limb (or other appropriate sites) of toxicokinetics experiment animals, and was placed in labeled collection tubes using ethylenediaminetetraacetic acid dipotassium (K2EDTA) as an anticoagulant. Plasma was obtained by centrifugation for 10 minutes at 3000 rpm and under the condition of 2° C. to 8° C. in 60 minutes after blood collection. All samples were quantitatively detected for the content of the administered compounds in plasma of the experimental animals by liquid chromatography-coupled mass spectrometry (LC-MS) and mass spectrometry (MS) technology.

[3] = 2.5 mg/mL both eyes, 1 hour after administration
[4] = 2.5 mg/mL both eyes, 2 hours after administration
[5] = 2.5 mg/mL both eyes, 4 hours after administration
[6] = 2.5 mg/mL both eyes, 6 hours after administration
[7] = 2.5 mg/mL both eyes, 8 hours after administration
[8] = 2.5 mg/mL both eyes, 10 hours after administration
[9] = 2.5 mg/mL both eyes, before administration
[10] = 5.0 mg/mL both eyes, 1 hour after administration
[11] = 5.0 mg/mL both eyes, 2 hours after administration
[12] = 5.0 mg/mL both eyes, 4 hours after administration
[13] = 5.0 mg/mL both eyes, 6 hours after administration
[14] = 5.0 mg/mL both eyes, 8 hours after administration
[15] = 5.0 mg/mL both eyes, 10 hours after administration
[16] = 5.0 mg/mL both eyes, before administration
[17] = 10 mg/mL both eyes, 1 hour after administration
[18] = 10 mg/mL both eyes, 2 hours after administration
[19] = 10 mg/mL both eyes, 4 hours after administration
[20] = 10 mg/mL both eyes, 6 hours after administration
[21] = 10 mg/mL both eyes, 8 hours after administration
[22] = 10 mg/mL both eyes, 10 hours after administration
[23] = 10 mg/mL both eyes, before administration
[24] = Time 0.00 hour (before administration)

SMILES: Cc1cn(COC(=O)c2ccccc2)c(=O)c2cccc(S(=O)(=O)N3CCC(N)C3)c12 (stereo not drawn) [Compound 60]
- Intraocular pressure in the left eye [1, 3]: 5.00 mmHg
- Intraocular pressure in the left eye [1, 4]: 6.63 mmHg
- Intraocular pressure in the left eye [1, 5]: 8.29 mmHg
- Intraocular pressure in the left eye [1, 6]: 10.71 mmHg
- Intraocular pressure in the left eye [1, 7]: 12.17 mmHg
- Intraocular pressure in the left eye [1, 8]: 12.00 mmHg
- Intraocular pressure in the left eye [1, 9]: 12.00 mmHg
- Intraocular pressure in the right eye [1, 3]: 22.33 mmHg
- Intraocular pressure in the right eye [1, 4]: 19.75 mmHg
- Intraocular pressure in the right eye [1, 5]: 20.29 mmHg
- Intraocular pressure in the right eye [1, 6]: 17.00 mmHg
- Intraocular pressure in the right eye [1, 7]: 14.54 mmHg
- Intraocular pressure in the right eye [1, 8]: 12.54 mmHg
- Intraocular pressure in the right eye [1, 9]: 12.54 mmHg
- Intraocular pressure in the left eye [1, 10]: 4.96 mmHg
- Intraocular pressure in the left eye [1, 11]: 5.96 mmHg
- Intraocular pressure in the left eye [1, 12]: 8.29 mmHg
- Intraocular pressure in the left eye [1, 13]: 11.21 mmHg
- Intraocular pressure in the left eye [1, 14]: 11.46 mmHg
- Intraocular pressure in the left eye [1, 15]: 11.75 mmHg
- Intraocular pressure in the left eye [1, 16]: 11.75 mmHg
- Intraocular pressure in the right eye [1, 10]: 21.00 mmHg
- Intraocular pressure in the right eye [1, 11]: 16.29 mmHg
- Intraocular pressure in the right eye [1, 12]: 16.75 mmHg
- Intraocular pressure in the right eye [1, 13]: 14.88 mmHg
- Intraocular pressure in the right eye [1, 14]: 13.08 mmHg
- Intraocular pressure in the right eye [1, 15]: 11.25 mmHg
- Intraocular pressure in the right eye [1, 16]: 11.25 mmHg
- Intraocular pressure in the left eye [1, 17]: 4.63 mmHg
- Intraocular pressure in the left eye [1, 18]: 5.50 mmHg
- Intraocular pressure in the left eye [1, 19]: 9.25 mmHg
- Intraocular pressure in the left eye [1, 20]: 10.79 mmHg
- Intraocular pressure in the left eye [1, 21]: 11.75 mmHg
- Intraocular pressure in the left eye [1, 22]: 12.13 mmHg
- Intraocular pressure in the left eye [1, 23]: 12.13 mmHg
- Intraocular pressure in the right eye [1, 17]: 19.83 mmHg
- Intraocular pressure in the right eye [1, 18]: 17.46 mmHg
- Intraocular pressure in the right eye [1, 19]: 15.00 mmHg
- Intraocular pressure in the right eye [1, 20]: 12.33 mmHg
- Intraocular pressure in the right eye [1, 21]: 11.25 mmHg
- Intraocular pressure in the right eye [1, 22]: 12.08 mmHg
- Intraocular pressure in the right eye [1, 23]: 12.08 mmHg

SMILES: Cc1ccc(C(=O)OCn2cc(C)c3c(S(=O)(=O)N4CC[C@H](N)C4)cccc3c2=O)c(C)c1 [Compound 63]
- Concentration of active compounds in plasma, Group 1 [2, 24]: BQL
- Concentration of active compounds in plasma, Group 2 [2, 24]: BQL
- Concentration of active compounds in plasma, Group 1 ([2]; Time 8.00 hour): BQL
- Concentration of active compounds in plasma, Group 2 ([2]; Time 8.00 hour): BQL
- Concentration of active compounds in plasma, Group 1 ([2]; Time 24.0 hour): BQL
- Concentration of active compounds in plasma, Group 2 ([2]; Time 24.0 hour): BQL
- Metabolite concentration in plasma ([2]; 8 hours after administration, high dose of 8 mg/mL): below the detection limit

SMILES: C[C@H]1CNCCCN1S(=O)(=O)c1cccc2cncc(F)c12 [Compound K-115, reference compound]
- Intraocular pressure in the left eye [1, 17]: 5.88 mmHg
- Intraocular pressure in the left eye [1, 18]: 5.96 mmHg
- Intraocular pressure in the left eye [1, 19]: 8.29 mmHg
- Intraocular pressure in the left eye [1, 20]: 10.54 mmHg
- Intraocular pressure in the left eye [1, 21]: 11.88 mmHg
- Intraocular pressure in the left eye [1, 22]: 11.79 mmHg
- Intraocular pressure in the left eye [1, 23]: 11.79 mmHg
- Intraocular pressure in the right eye [1, 17]: 28.79 mmHg
- Intraocular pressure in the right eye [1, 18]: 22.67 mmHg
- Intraocular pressure in the right eye [1, 19]: 26.08 mmHg
- Intraocular pressure in the right eye [1, 20]: 23.25 mmHg
- Intraocular pressure in the right eye [1, 21]: 23.25 mmHg
- Intraocular pressure in the right eye [1, 22]: 11.92 mmHg
- Intraocular pressure in the right eye [1, 23]: 11.92 mmHg
